Experimental data reported in ChEMBL document CHEMBL3817754, “Synthesis and evaluation of donepezilferulic acid hybrids as multi-target-directed ligands against Alzheimer's disease” (Medchemcomm, 2016).
Calls of active or inactive are those of the source. The rule behind the calls is not given here.

Experiments:
Acetylcholinesterase [1] = molecular target: Acetylcholinesterase (Electrophorus electricus, UniProt O42275); test: Inhibition of electric eel acetylcholinesterase preincubated for 5 mins followed by addition of acetylthiocholine iodide as substrate measured after 60 to 120 mins by Ellmans method
Cholinesterase [2] = molecular target: Cholinesterase (Equus caballus, UniProt P81908); test: Inhibition of equine serum butyrylcholinesterase preincubated for 5 mins followed by addition of S-butyrylthiocholine iodide as substrate measured after 60 to 120 mins by Ellmans method
[3] = Selectivity index, ratio of IC50 for equine serum butyrylcholinesterase to IC50 for electric eel acetylcholinesterase
Acetylcholinesterase [4] = molecular target: Acetylcholinesterase (Homo sapiens, UniProt P22303); test: Inhibition of human erythrocytes acetylcholinesterase preincubated for 5 mins followed by addition of acetylthiocholine iodide as substrate measured after 60 to 120 mins by Ellmans method
Cholinesterase [5] = molecular target: Cholinesterase (Homo sapiens, UniProt P06276); test: Inhibition of human serum butyrylcholinesterase preincubated for 5 mins followed by addition of S-butyrylthiocholine iodide as substrate measured after 60 to 120 mins by Ellmans method
Homo sapiens = organism: Homo sapiens; test: Selectivity index, ratio of IC50 for human serum butyrylcholinesterase to IC50 for human erythrocytes acetylcholinesterase
[6] = Cytotoxicity against […] PC12 cells assessed as cell viability at 20 uM after 24 hrs by MTT assay; format: cell-based; conditions: rat, pc-12, 24 h
PC-12 = test: Neuroprotective activity against H2O2 induced damage in […] PC12 cells assessed as cell viability at 1 to 10 uM preincubated for 4 hrs followed by H2O2 challenge for 20 hrs by MTT assay; format: functional, cell-based; conditions: Rattus norvegicus
[7] = DPPH radical solution, 30 min
Description: Antioxidant activity assessed as DPPH radical scavenging activity incubated in dark for 30 mins by spectrophotometry

in vitro = conditions: PAMPA
[8] = Antioxidant activity assessed as DPPH radical scavenging activity at 1000 uM incubated in dark for 30 mins by spectrophotometry; format: physicochemical; conditions: 0.5 h
[9] = molecular target: Acetylcholinesterase (Electrophorus electricus) (UniProt O42275); test: Inhibition of electric eel acetylcholinesterase at 1000 uM preincubated for 5 mins followed by addition of acetylthiocholine iodide as substrate measured after 60 to 120 mins by Ellmans method
[10] = molecular target: Cholinesterase (Equus caballus) (UniProt P81908); test: Inhibition of equine serum butyrylcholinesterase at 1000 uM preincubated for 5 mins followed by addition of S-butyrylthiocholine iodide as substrate measured after 60 to 120 mins by Ellmans method
[11] = molecular target: Acetylcholinesterase (Electrophorus electricus) (UniProt O42275); test: Mixed-type inhibition of electric eel acetylcholinesterase at 0.2 to 0.8 uM preincubated for 5 mins followed by addition of acetylthiocholine iodide as substrate measured after 60 to 120 mins by Lineweaver-Burk plot analysis
[12] = molecular target: Cholinesterase (Equus caballus) (UniProt P81908); test: Mixed-type inhibition of equine serum butyrylcholinesterase at 0.5 to 2 uM preincubated for 5 mins followed by addition of S-butyrylthiocholine iodide as substrate measured after 60 to 120 mins by Lineweaver-Burk plot analysis
[13] = Metal chelating activity assessed as copper-compound complex formation at 75 uM after 30 mins by UV-vis spectrometry; format: physicochemical; conditions: 0.5 h
[14] = Metal chelating activity assessed as ferrous-compound complex formation at 75 uM after 30 mins by UV-vis spectrometry; format: physicochemical; conditions: 0.5 h
[15] = Metal chelating activity assessed as ferric-compound complex formation at 75 uM after 30 mins by UV-vis spectrometry; format: physicochemical; conditions: 0.5 h
[16] = Metal chelating activity assessed as zinc-compound complex formation at 75 uM after 30 mins by UV-vis spectrometry; format: physicochemical; conditions: 0.5 h

Sequence of Cholinesterase (Homo sapiens, UniProt P06276) (P06276 whole entry): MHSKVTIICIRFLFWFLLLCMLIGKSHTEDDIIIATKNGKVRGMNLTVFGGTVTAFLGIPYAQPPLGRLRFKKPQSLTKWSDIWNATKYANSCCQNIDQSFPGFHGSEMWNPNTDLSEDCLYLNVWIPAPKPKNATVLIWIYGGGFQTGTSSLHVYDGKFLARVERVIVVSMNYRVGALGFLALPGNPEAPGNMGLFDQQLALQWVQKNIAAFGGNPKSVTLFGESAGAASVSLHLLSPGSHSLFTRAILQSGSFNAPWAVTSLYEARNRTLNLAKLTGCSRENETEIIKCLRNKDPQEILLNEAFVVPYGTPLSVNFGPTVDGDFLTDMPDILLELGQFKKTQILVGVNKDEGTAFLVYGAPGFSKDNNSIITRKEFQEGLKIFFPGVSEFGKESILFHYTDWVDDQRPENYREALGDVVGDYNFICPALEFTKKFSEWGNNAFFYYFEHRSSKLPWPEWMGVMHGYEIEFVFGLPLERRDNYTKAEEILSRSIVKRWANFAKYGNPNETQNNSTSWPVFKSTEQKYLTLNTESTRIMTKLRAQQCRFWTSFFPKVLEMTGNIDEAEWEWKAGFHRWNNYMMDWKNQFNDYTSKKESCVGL
Sequence of Acetylcholinesterase (Electrophorus electricus) (O42275 24-633 limits assumed): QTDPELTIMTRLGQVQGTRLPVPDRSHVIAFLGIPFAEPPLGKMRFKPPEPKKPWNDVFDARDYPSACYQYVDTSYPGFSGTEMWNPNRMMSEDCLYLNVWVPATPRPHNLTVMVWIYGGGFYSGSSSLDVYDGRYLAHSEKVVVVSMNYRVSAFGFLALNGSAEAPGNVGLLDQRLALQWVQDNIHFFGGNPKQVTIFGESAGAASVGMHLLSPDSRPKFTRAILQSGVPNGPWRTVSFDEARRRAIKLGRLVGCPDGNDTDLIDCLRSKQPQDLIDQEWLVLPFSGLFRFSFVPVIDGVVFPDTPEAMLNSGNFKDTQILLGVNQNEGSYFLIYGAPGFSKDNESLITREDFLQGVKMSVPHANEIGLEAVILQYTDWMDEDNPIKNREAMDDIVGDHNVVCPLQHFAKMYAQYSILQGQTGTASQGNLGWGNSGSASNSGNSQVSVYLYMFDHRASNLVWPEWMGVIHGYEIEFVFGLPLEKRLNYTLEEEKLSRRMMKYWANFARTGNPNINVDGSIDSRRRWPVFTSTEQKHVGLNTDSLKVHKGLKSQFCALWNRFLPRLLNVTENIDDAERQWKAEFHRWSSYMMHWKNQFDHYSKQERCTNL
Sequence of Cholinesterase (Equus caballus) (P81908 whole entry): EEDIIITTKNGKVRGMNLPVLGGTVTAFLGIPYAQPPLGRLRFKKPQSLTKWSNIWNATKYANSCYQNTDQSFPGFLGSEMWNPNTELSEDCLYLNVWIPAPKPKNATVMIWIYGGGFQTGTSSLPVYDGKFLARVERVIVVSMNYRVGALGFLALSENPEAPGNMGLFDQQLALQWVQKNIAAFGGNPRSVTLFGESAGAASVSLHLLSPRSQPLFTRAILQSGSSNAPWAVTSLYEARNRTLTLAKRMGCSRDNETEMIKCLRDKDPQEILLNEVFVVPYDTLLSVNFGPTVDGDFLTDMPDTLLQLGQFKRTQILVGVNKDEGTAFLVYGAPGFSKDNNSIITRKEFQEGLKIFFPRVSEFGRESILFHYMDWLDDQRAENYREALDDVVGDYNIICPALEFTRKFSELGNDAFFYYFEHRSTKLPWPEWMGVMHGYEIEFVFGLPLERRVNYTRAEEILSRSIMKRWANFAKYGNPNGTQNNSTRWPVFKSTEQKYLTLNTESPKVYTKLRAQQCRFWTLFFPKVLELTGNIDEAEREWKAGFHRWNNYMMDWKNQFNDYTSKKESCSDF
Sequence of Cholinesterase (Equus caballus, UniProt P81908) (P81908 whole entry): as above
Sequence of Acetylcholinesterase (Homo sapiens, UniProt P22303) (P22303 whole entry): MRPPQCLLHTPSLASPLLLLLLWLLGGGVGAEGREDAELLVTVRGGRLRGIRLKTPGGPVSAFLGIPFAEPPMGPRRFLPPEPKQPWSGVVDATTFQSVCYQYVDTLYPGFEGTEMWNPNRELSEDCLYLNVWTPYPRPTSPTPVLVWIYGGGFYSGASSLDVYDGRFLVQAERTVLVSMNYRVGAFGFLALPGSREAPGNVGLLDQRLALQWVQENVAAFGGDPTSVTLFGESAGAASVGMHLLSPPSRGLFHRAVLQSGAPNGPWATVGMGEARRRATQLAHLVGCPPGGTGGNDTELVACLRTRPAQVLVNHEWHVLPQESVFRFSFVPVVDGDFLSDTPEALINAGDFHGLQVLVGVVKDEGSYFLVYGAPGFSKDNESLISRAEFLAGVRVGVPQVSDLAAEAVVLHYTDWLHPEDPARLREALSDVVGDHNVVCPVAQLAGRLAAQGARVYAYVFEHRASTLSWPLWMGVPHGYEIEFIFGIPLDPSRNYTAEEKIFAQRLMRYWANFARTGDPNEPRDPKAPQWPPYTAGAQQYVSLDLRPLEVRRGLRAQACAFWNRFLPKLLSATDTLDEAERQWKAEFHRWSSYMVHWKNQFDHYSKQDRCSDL
Sequence of Acetylcholinesterase (Electrophorus electricus, UniProt O42275) (O42275 whole entry): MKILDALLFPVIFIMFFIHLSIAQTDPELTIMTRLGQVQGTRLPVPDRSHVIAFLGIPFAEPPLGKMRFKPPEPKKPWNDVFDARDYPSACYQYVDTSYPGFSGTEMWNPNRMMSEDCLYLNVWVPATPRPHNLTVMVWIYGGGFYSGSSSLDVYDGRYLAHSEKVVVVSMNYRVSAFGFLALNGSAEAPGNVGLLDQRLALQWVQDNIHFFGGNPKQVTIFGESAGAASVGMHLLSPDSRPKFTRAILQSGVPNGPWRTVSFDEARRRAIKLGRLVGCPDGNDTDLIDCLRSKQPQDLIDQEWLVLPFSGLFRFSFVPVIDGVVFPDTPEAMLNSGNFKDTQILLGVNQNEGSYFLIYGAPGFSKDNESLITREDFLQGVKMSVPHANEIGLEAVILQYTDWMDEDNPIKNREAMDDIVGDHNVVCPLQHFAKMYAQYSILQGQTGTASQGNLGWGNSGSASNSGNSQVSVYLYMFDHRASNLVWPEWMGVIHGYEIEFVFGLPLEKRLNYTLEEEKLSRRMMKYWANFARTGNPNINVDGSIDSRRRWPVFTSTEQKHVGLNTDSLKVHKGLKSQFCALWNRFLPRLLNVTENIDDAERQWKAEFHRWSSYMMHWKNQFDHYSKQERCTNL

SMILES	IC50 (Acetylcholinesterase [1]) [µM]	IC50 (Cholinesterase [2]) [nM]	Ratio IC50 [3]	IC50 (Acetylcholinesterase [4]) [nM]	IC50 (Cholinesterase [5]) [nM]	Ratio IC50 (Homo sapiens)	Activity [6]	IC50 [7] [µM]	inhibition (INH) [8]	further results
COc1cc(/C=C/C(=O)NCCC2CCN(Cc3ccccc3)CC2)ccc1O	0.651	1220	1.87	729	1120	1.54	Non-toxic	34.1	–	Activity (PC-12): Active; Papp at 16 h, 5 mg/mL (in vitro): 5.16 ×10⁻⁶ cm/s
O=C(/C=C/c1ccc(O)cc1)NCCC1CCN(Cc2ccccc2)CC1	0.874	1240	1.42	2200	784	0.36	Non-toxic	936	–	–
COc1ccc(/C=C/C(=O)NCCC2CCN(Cc3ccccc3)CC2)cc1O	1.06	2470	2.33	1660	3240	1.95	Non-toxic	764	–	–
Cc1c(C)c2c(c(C)c1O)CCC(C)(C(=O)O)O2 (stereo not drawn)	–	–	–	–	–	–	–	–	–	Activity (PC-12): Active
COc1cc(/C=C/C(=O)NC2CCN(Cc3ccccc3)CC2)ccc1O	29.3	49200	1.68	–	–	–	Non-toxic	32.5	–	–
O=C(/C=C/c1ccccc1)NCCC1CCN(Cc2ccccc2)CC1	0.543	390	0.718	411	1410	3.43	Non-toxic	–	Not Active	–
COc1cc(/C=C/C(=O)CC(=O)NCCC2CCN(Cc3ccccc3)CC2)ccc1O	2.6	1080	0.415	–	–	–	Non-toxic	76.8	–	–
COc1cc(CCC(=O)NC2CCN(Cc3ccccc3)CC2)ccc1O	33.6	31900	0.949	–	–	–	Non-toxic	55.1	–	–
COc1cc(/C=C/C(=O)CC(=O)NC2CCN(Cc3ccccc3)CC2)ccc1O	26.3	53200	1.99	–	–	–	Non-toxic	88.7	–	–
COc1ccc(/C=C/C(=O)NCCC2CCN(Cc3ccccc3)CC2)cc1OC	0.285	1550	5.43	526	2540	4.83	Non-toxic	–	Not Active	–
O=C(/C=C/c1ccccc1O)NCCC1CCN(Cc2ccccc2)CC1	2.16	1060	0.491	2680	988	0.37	Non-toxic	977	–	–
COc1cc(/C=C/C(=O)CC(=O)/C=C/c2ccc(O)c(OC)c2)ccc1O [CURCUMIN]	–	–	4.43	–	–	–	–	23.3	–	inhibition [9]: inactive; inhibition [10]: inactive
COc1cc(CCC(=O)NCCC2CCN(Cc3ccccc3)CC2)ccc1O	7.48	4400	0.588	5320	286	0.054	Non-toxic	48.3	–	Activity (PC-12): Active
O=C(/C=C/c1ccc(O)cc1)CC(=O)NC1CCN(Cc2ccccc2)CC1	58.3	3100	0.053	–	–	–	Non-toxic	890	–	–
COc1cc(/C=C/C(=O)O)ccc1O [FERULATE]	–	–	4.95	–	–	–	–	30.6	–	inhibition [9]: inactive; inhibition [10]: inactive
O=C(/C=C/c1ccc(O)cc1)NC1CCN(Cc2ccccc2)CC1	70.8	146000	2.06	–	–	–	Non-toxic	980	–	–
O=C(/C=C/c1ccc(O)c(O)c1)NC1CCN(Cc2ccccc2)CC1	62.1	15000	0.241	–	–	–	Non-toxic	10.6	–	Activity (PC-12): Active

SMILES	IC50 (Acetylcholinesterase [1]) [µM]	IC50 (Cholinesterase [2]) [nM]	Ratio IC50 [3]	IC50 (Acetylcholinesterase [4]) [nM]	IC50 (Cholinesterase [5]) [nM]	Ratio IC50 (Homo sapiens)	Activity [6]	IC50 [7] [µM]	inhibition (INH) [8]	further results
O=C(/C=C/c1ccc(O)c(O)c1)NCCC1CCN(Cc2ccccc2)CC1	5.17	165000	31.9	1450	145000	100	Non-toxic	10.7	–	Activity (PC-12): Active; Papp at 16 h, 5 mg/mL (in vitro): 5.38 ×10⁻⁶ cm/s
NC1CCN(Cc2ccccc2)CC1	–	–	–	–	–	–	–	–	–	inhibition [9]: inactive; inhibition [10]: inactive
COc1cc(/C=C/C(=O)NC2CCN(Cc3ccccc3)CC2)ccc1OC(C)=O	22	17300	0.786	–	–	–	Non-toxic	–	Not Active	–
O=C(/C=C/c1ccc([N+](=O)[O-])cc1)NC1CCN(Cc2ccccc2)CC1	7.12	9010	1.26	–	–	–	Non-toxic	–	Not Active	–
COc1cc(/C=C/C(=O)NC2CCN(Cc3ccccc3)CC2)cc(OC)c1OC	31.6	1250	0.038	–	–	–	Non-toxic	–	Not Active	–
COc1cccc(/C=C/C(=O)NCCC2CCN(Cc3ccccc3)CC2)c1	0.383	244	0.642	690	1440	2.09	Non-toxic	–	Not Active	–
O=C(/C=C/c1ccc([N+](=O)[O-])cc1)NCCC1CCN(Cc2ccccc2)CC1	0.444	3100	6.98	337	4230	12.5	Non-toxic	–	Not Active	–
COc1cc(/C=C/C(=O)NCCC2CCN(Cc3ccccc3)CC2)cc(OC)c1OC	0.13	416	3.2	234	669	2.86	Non-toxic	–	Not Active	Papp at 16 h, 5 mg/mL (in vitro): 7.43 ×10⁻⁶ cm/s
O=C(/C=C/c1ccc(F)cc1)NCCC1CCN(Cc2ccccc2)CC1	0.815	1980	2.43	3300	7510	2.28	Non-toxic	–	Not Active	–
COc1cc(/C=C/C(=O)NC2CCN(Cc3ccccc3)CC2)cc(OC)c1O	28.2	7340	0.26	–	–	–	Non-toxic	22.3	–	–
O=C(/C=C/c1ccc(Cl)cc1)NC1CCN(Cc2ccccc2)CC1	67.7	51400	0.759	–	–	–	Non-toxic	–	Not Active	–
NCCC1CCN(Cc2ccccc2)CC1	159	–	–	–	–	–	–	–	–	inhibition [10]: inactive
O=C(/C=C/c1ccc(Cl)cc1)NCCC1CCN(Cc2ccccc2)CC1	0.521	2770	5.32	362	2070	5.72	Toxic	–	Not Active	–
COc1cc(/C=C/C(=O)NCCC2CCN(Cc3ccccc3)CC2)cc(OC)c1O	0.398	976	2.2	321	1220	3.8	Non-toxic	24.9	–	inhibition [11]: Active; inhibition [12]: Active; Activity (PC-12): Active; Activity [13]: Active; Activity [14]: Not Active; Activity [15]: Not Active; Activity [16]: Not Active; Papp at 16 h, 5 mg/mL (in vitro): 7.68 ×10⁻⁶ cm/s
O=C(/C=C/c1ccc(F)cc1)NC1CCN(Cc2ccccc2)CC1	59.3	90800	1.53	–	–	–	Non-toxic	–	Not Active	–
COc1cc(/C=C/C(=O)NCCC2CCN(Cc3ccccc3)CC2)ccc1OC(C)=O	0.29	670	2.31	339	245	0.72	Non-toxic	–	Not Active	–
